Experimental data: patent US8822471B2, “Compounds, pharmaceutical compositions and uses thereof” (Boehringer Ingelheim International GmbH, priority 2011, dated 2014)

Target: T1, mutant form of the human GPR119 receptor (Homo sapiens, UniProt Q8TDV5, S329A/T327A)
T1 construct: T327 & S329 changed to alanines; expressed in transfected cells
T1 sequence (Q8TDV5 2-335 T327A/S329A): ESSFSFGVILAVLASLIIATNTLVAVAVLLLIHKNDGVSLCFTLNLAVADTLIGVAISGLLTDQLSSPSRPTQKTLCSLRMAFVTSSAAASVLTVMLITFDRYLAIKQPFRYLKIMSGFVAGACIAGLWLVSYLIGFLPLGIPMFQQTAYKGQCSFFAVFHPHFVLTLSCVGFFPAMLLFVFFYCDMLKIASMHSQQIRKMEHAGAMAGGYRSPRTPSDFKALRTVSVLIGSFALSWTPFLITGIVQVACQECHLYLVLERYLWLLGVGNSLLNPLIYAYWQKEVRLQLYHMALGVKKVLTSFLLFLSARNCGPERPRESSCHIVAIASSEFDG
Assay: LANCE cAMP-384 assay in HEK293 cells stably expressing a mutant form of the human GPR119 receptor
Assay type: cell-based
Settings: HEK293 cells stably expressing mutant human GPR119, LANCE cAMP-384 Kit, 20 min at 37° C.
Description: Quantitative detection of cAMP accumulation from cells expressing human GPR119 receptor is achieved using Perkin Elmer's LANCE cAMP-384 Kit (Cat#AD0264) according to the manufacturer's protocol. Briefly, HEK293 cells stably expressing a mutant form of the human GPR119 receptor as assay tool (Methionine 1 replaced with the amino acid sequence […], and T327 & S329 changed to alanines; SEQ ID No. 1) are grown to 50-70% confluency in cell culture media (DMEM, 10% heat inactivated Fetal Bovine Serum, 50 I.U./mL penicillin, 50 μg/mL streptomycin, 10 mM HEPES, 20 μg/mL G418 Sulfate). On the day of the assay, GPR119 stable HEK293 cells are lifted from the tissue culture plate and 1000 cells/well are incubated along with various concentrations of test compounds for 20 min at 37° C. Detection Buffer (50 mM HEPES, 10 mM calcium chloride, 0.35% Triton X-100, 1 mg/mL BSA) containing cAMP-specific antibody is then added to all wells and allowed to equilibrate in the dark for 10 minutes at room temperature. Upon equilibration, Detection Buffer containing europium-labeled cAMP tracer complex is added to all wells and allowed to react for 1 hour at room temperature. After 1 hour, bound europium-labeled cAMP tracer is measured using a Perkin Elmer Envision plate reader. The quantity of cAMP generated in each well is derived from a standard curve. EC50 is determined using nonlinear regression analysis of the cAMP values over a range of agonist concentration (12 points spanning the range from 30 μM to 100 pM).

Compound: Cc1nnnn1-c1ccc(C(=O)N(C2CC2)C2CCN(c3ncc(C(F)(F)F)cc3F)CC2)cc1F [Example 119, N-Cyclopropyl-3-fluoro-N-(3′-fluoro-5′-trifluoromethyl-3,4,5,6-tetrahydro-2H-[1,2]bipyridinyl-4-yl)-4-(5-methyl-tetrazol-1-yl)-benzamide]
- EC50: 117 nM
